Laboratory results taken from PubChem BioAssay AID330 (DTP/NCI, 2004).
Values joined by “and” are separate entries in the source; they are usually repeats but may differ in a detail not shown here. Identical values can stand only once. Toxic doses and inconclusive results are not listed. The calls were made as follows: active = survival T/C of 150% or more; inactive = T/C below 125% in these data.

Tested on: P388 leukemia ip, CD2F1 mice, survival T/C
Test: NCI In Vivo Anticancer Drug Screen. Data for tumor model P388 Leukemia (intraperitoneal) in CD2F1 (CDF1) mice
Conditions: endpoint: median survival time, higher = longer survival
Method in brief: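 Mice carrying the transplanted tumor received test compound or vehicle. Survival was recorded in each group, and the value is the treated-group measurement divided by that of the vehicle-treated control group.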

[1] = dose: 50.0 mg/kg/injection, schedule: Q01DX005 (ip), vehicle: saline
[2] = dose: 50.0 mg/kg/injection, schedule: Q01DX009 (ip), vehicle: Klucel (hydroxypropylcellulose) (HPC)
[3] = dose: 100.0 mg/kg/injection, schedule: Q01DX005 (ip), vehicle: saline
[4] = dose: 100.0 mg/kg/injection, schedule: Q01DX009 (ip), vehicle: Klucel (hydroxypropylcellulose) (HPC)
[5] = dose: 200.0 mg/kg/injection, schedule: Q01DX005 (ip), vehicle: saline
[6] = dose: 200.0 mg/kg/injection, schedule: Q01DX009 (ip), vehicle: Klucel (hydroxypropylcellulose) (HPC)
[7] = dose: 60.0 mg/kg/injection, schedule: Q01DX005 (ip), vehicle: saline with Tween-80
[8] = dose: 120.0 mg/kg/injection, schedule: Q01DX005 (ip), vehicle: saline with Tween-80
[9] = dose: 240.0 mg/kg/injection, schedule: Q01DX005 (ip), vehicle: saline with Tween-80
[10] = dose: 50.0 mg/kg/injection, schedule: Q04DX003 (ip), vehicle: saline with Tween-80
[11] = dose: 100.0 mg/kg/injection, schedule: Q04DX003 (ip), vehicle: saline with Tween-80
[12] = dose: 60.0 mg/kg/injection, schedule: Q01DX005 (ip), vehicle: saline
[13] = dose: 120.0 mg/kg/injection, schedule: Q01DX005 (ip), vehicle: saline
[14] = dose: 240.0 mg/kg/injection, schedule: Q01DX005 (ip), vehicle: saline
[15] = dose: 50.0 mg/kg/injection, schedule: Q01DX005 (ip), vehicle: Klucel (hydroxypropylcellulose) (HPC)
[16] = dose: 100.0 mg/kg/injection, schedule: Q01DX005 (ip), vehicle: Klucel (hydroxypropylcellulose) (HPC)
[17] = dose: 200.0 mg/kg/injection, schedule: Q01DX005 (ip), vehicle: Klucel (hydroxypropylcellulose) (HPC)
[18] = dose: 50.0 mg/kg/injection, schedule: Q01DX005 (ip), vehicle: saline with Tween-80
[19] = dose: 100.0 mg/kg/injection, schedule: Q01DX005 (ip), vehicle: saline with Tween-80
[20] = dose: 200.0 mg/kg/injection, schedule: Q01DX005 (ip), vehicle: saline with Tween-80
[21] = dose: 100.0 mg/kg/injection, schedule: Q01DX001 (ip), vehicle: saline with Tween-80
[22] = dose: 200.0 mg/kg/injection, schedule: Q01DX001 (ip), vehicle: saline with Tween-80
[23] = dose: 400.0 mg/kg/injection, schedule: Q01DX001 (ip), vehicle: saline with Tween-80

Measured: T/C

CC(CC(N)C(=O)O)C(=O)O (stereo not drawn)
inactive: [1] 103 % of control | [2] 103 % of control | [3] 98 % of control | [4] 102 % of control | [5] 100 % of control | [6] 103 % of control | dose: 400.0 mg/kg/injection, schedule: Q01DX009 (ip), vehicle: Klucel (hydroxypropylcellulose) (HPC) 103 % of control

Cc1nn(-c2ccccc2)nc1C(=O)Nc1ccccc1C(=O)NCC1CC1
inactive: [7] 91 % of control | [8] 90 % of control and 94 % of control and 96 % of control | [9] 103 % of control and 95 % of control and 96 % of control

COP1(=O)OC(C)=C(C)c2cccn21 (stereo not drawn)
inactive: dose: 25.0 mg/kg/injection, schedule: Q04DX003 (ip), vehicle: saline with Tween-80 103 % of control | [10] 106 % of control | [11] 99 % of control and 96 % of control

COc1cc(C(=O)OC2c3ccccc3CCC2N(C)C)cc(OC)c1OC (stereo not drawn)
inactive: dose: 25.0 mg/kg/injection, schedule: Q01DX009 (ip), vehicle: saline with Tween-80 98 % of control | dose: 50.0 mg/kg/injection, schedule: Q01DX009 (ip), vehicle: saline with Tween-80 91 % of control

CCn1c(=O)c2ncnnc2n(CC)c1=O
inactive: dose: 6.25 mg/kg/injection, schedule: Q01DX009 (ip), vehicle: Klucel (hydroxypropylcellulose) (HPC) 104 % of control | dose: 12.5 mg/kg/injection, schedule: Q01DX009 (ip), vehicle: Klucel (hydroxypropylcellulose) (HPC) 111 % of control

O=C1OCN2C(=O)CCC12 (stereo not drawn)
inactive: [12] 109 % of control | [13] 97 % of control | [14] 86 % of control

O=[N+]([O-])c1cc2ccc3ccoc3c2o1
inactive: [15] 90 % of control | [16] 97 % of control | [17] 96 % of control

CN(C)c1ccc2nc(/C=N/NC(N)=S)ccc2c1
inactive: dose: 100.0 mg/kg/injection, schedule: Q04DX002 (ip), vehicle: distilled water + Tween-80 + alcohol 101 % of control | dose: 200.0 mg/kg/injection, schedule: Q04DX002 (ip), vehicle: distilled water + Tween-80 + alcohol 92 % of control

CC1(C)OC(=O)C2(O1)C(=O)C1CCCCC12C (stereo not drawn)
inactive: [7] 100 % of control | [8] 95 % of control | [9] 95 % of control

COc1ccc(NC(=O)c2cc3ccc4c5ccccc5[nH]c4c3cc2O)cc1
inactive: [18] 90 % of control | [19] 88 % of control

OC(c1cc(-c2ccccc2)nc2ccc(Cl)cc12)C1CCCCN1 (stereo not drawn)
inactive: [18] 97 % of control | [19] 90 % of control | [20] 99 % of control

C(=NCCC[Si]12OCCN(CCO1)CCO2)c1ccccc1
inactive: [15] 105 % of control | [16] 98 % of control | [17] 102 % of control

Nc1c(-c2noc(=O)[nH]2)ncn1Cc1ccccc1
inactive: dose: 100.0 mg/kg/injection, schedule: Q01DX001 (ip), vehicle: Klucel (hydroxypropylcellulose) (HPC) 97 % of control | dose: 200.0 mg/kg/injection, schedule: Q01DX001 (ip), vehicle: Klucel (hydroxypropylcellulose) (HPC) 92 % of control | dose: 400.0 mg/kg/injection, schedule: Q01DX001 (ip), vehicle: Klucel (hydroxypropylcellulose) (HPC) 99 % of control

CC(C)CC(C)N(C(=S)S)C(C)CC(C)C.[Zn+2] (stereo not drawn)
inactive: [18] 100 % of control | [19] 104 % of control | [20] 100 % of control

CCCCCCCCCCCCCCCc1c(NC(C)(CC(C)(C)O)[P+](=O)O)c(=O)n(C)n1C (stereo not drawn)
inactive: dose: 50.0 mg/kg/injection, schedule: Q01DX009 (ip), vehicle: saline 96 % of control | dose: 100.0 mg/kg/injection, schedule: Q01DX009 (ip), vehicle: saline 88 % of control

OCC1CCC2CCCCC2N1 (stereo not drawn)
inactive: [1] 104 % of control | [3] 102 % of control | [5] 101 % of control

CCCNc1ncc(C(=O)O)c(=O)[nH]1
inactive: dose: 1.56 mg/kg/injection, schedule: Q01DX009 (ip), vehicle: saline with Tween-80 104 % of control | dose: 3.12 mg/kg/injection, schedule: Q01DX009 (ip), vehicle: saline with Tween-80 95 % of control | dose: 6.25 mg/kg/injection, schedule: Q01DX009 (ip), vehicle: saline with Tween-80 95 % of control

CCN=C(N)Nc1nc(C)c2cc(Cl)ccc2n1
inactive: dose: 12.5 mg/kg/injection, schedule: Q01DX005 (ip), vehicle: saline 104 % of control | dose: 25.0 mg/kg/injection, schedule: Q01DX005 (ip), vehicle: saline 104 % of control | [18] 109 % of control | [1] 111 % of control

COc1ccc(CNSC(c2ccccc2)(c2ccccc2)c2ccccc2)cc1
inactive: [18] 98 % of control | [19] 101 % of control | [20] 97 % of control

OCC(O)C(O)Cc1cnc(C(O)C(O)C(O)CO)cn1 (stereo not drawn)
inactive: dose: 50.0 mg/kg/injection, schedule: Q01DX009 (ip), vehicle: other 93 % of control | dose: 100.0 mg/kg/injection, schedule: Q01DX009 (ip), vehicle: other 96 % of control | dose: 200.0 mg/kg/injection, schedule: Q01DX009 (ip), vehicle: other 102 % of control | dose: 400.0 mg/kg/injection, schedule: Q01DX009 (ip), vehicle: other 108 % of control | dose: 800.0 mg/kg/injection, schedule: Q01DX009 (ip), vehicle: other 102 % of control

C#CCSc1n[nH]c(-c2ccco2)n1
inactive: [7] 101 % of control | [8] 105 % of control | [9] 105 % of control

Cc1cc(F)nc(F)n1
inactive: [1] 98 % of control | [3] 98 % of control

CS(C)=Nc1ccc(Cl)cc1
inactive: dose: 100.0 mg/kg/injection, schedule: Q01DX001 (ip), vehicle: saline 109 % of control

CC1OC=CC(OC2OC(CO)C(O)C(O)C2O)C1O (stereo not drawn)
inactive: dose: 21.25 mg/kg/injection, schedule: Q01DX005 (ip), vehicle: saline 109 % of control | dose: 42.5 mg/kg/injection, schedule: Q01DX005 (ip), vehicle: saline 116 % of control | dose: 85.0 mg/kg/injection, schedule: Q01DX005 (ip), vehicle: saline 108 % of control | dose: 170.0 mg/kg/injection, schedule: Q01DX005 (ip), vehicle: saline 101 % of control

COc1ccc(C2c3cc4c(cc3OC(C)(OC)C2C)OCO4)cc1 (stereo not drawn)
inactive: dose: 6.25 mg/kg/injection, schedule: Q01DX005 (ip), vehicle: Klucel (hydroxypropylcellulose) (HPC) 95 % of control | dose: 12.5 mg/kg/injection, schedule: Q01DX005 (ip), vehicle: Klucel (hydroxypropylcellulose) (HPC) 87 % of control | dose: 25.0 mg/kg/injection, schedule: Q01DX005 (ip), vehicle: Klucel (hydroxypropylcellulose) (HPC) 87 % of control

O=C(C(=O)c1ccccn1)c1ccccn1
inactive: [10] 100 % of control | [11] 105 % of control | dose: 200.0 mg/kg/injection, schedule: Q04DX003 (ip), vehicle: saline with Tween-80 109 % of control | dose: 400.0 mg/kg/injection, schedule: Q04DX003 (ip), vehicle: saline with Tween-80 100 % of control

COc1ccc(N=Nc2c(-c3ccccc3)nn(C(=S)SC)c2-c2ccccc2)cc1
inactive: [21] 92 % of control | [22] 95 % of control | [23] 108 % of control

CCCCCc1nc2c(c3c1CCCC3)CCCC2
inactive: [12] 98 % of control | [13] 106 % of control | [14] 107 % of control

CC(=O)OCC1(C)ON=C2CCCCC21 (stereo not drawn)
inactive: [21] 94 % of control | [22] 104 % of control | [23] 94 % of control

CN(C)C1=NC(N(C)C)=C2C=C(C(C)(C)C)C=C12
inactive: dose: 60.0 mg/kg/injection, schedule: Q01DX005 (ip), vehicle: Klucel (hydroxypropylcellulose) (HPC) 101 % of control | dose: 120.0 mg/kg/injection, schedule: Q01DX005 (ip), vehicle: Klucel (hydroxypropylcellulose) (HPC) 101 % of control

CC(=O)OC1(c2nccc3ccccc23)CCN(Cc2ccccc2)CC1
inactive: [2] 106 % of control | [4] 106 % of control | [6] 102 % of control
